Patent publication US20230203029A1 (priority 2020, published 2023)
Where two headings read alike, the source gives them in different places.

Columns and labels:
[1] = target: T1, Ba/F3 Pro B-cell line expressing TEL-human Tyro3 fusion domain (Homo sapiens, UniProt Q06418); type: cell-based; settings: cell survival, 48 h, CellTiter-Glo
T1 sequence (Q06418 518-790 limits assumed): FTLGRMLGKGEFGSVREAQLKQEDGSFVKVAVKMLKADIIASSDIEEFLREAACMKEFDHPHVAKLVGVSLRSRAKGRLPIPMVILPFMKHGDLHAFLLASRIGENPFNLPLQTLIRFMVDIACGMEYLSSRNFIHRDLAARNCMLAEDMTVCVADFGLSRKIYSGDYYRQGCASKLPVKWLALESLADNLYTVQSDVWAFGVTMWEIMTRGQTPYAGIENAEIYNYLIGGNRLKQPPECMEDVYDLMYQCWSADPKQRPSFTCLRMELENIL

[2] = target: T2, Ba/F3 Pro B-cell line expressing TEL-human MERTK fusion domain (Homo sapiens, UniProt Q12866); type: cell-based
T2 sequence (Q12866 587-858 limits assumed): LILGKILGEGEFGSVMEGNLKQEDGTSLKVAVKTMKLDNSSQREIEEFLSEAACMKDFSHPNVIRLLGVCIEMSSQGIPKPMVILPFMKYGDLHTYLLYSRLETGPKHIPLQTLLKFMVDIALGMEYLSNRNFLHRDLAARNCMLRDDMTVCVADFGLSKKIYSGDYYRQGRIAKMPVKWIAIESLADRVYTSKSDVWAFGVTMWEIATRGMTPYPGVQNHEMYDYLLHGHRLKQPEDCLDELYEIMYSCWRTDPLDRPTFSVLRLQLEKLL
How it was run: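 Ba/F3 cells dependent on BCR-AXL or TEL-MERTK fusion kinase (IL3-free; IL3 only for control lines) treated with compound 48 h at 37 °C, 0.25% DMSO. Viability by CellTiter-Glo luminescence; IC50 for half-maximal inhibition of survival from 4-parameter variable-slope fit.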

[3] = target: T3, Ba/F3 Pro B-cell line expressing BCR-human AXL kinase domain fusion protein (Homo sapiens, UniProt P30530); assay: Assay 5 Ba/F3 cell survival assay, BCR-Axl; type: cell-based; settings: read-out: BCR-Axl Ba/F3 IC50, 48 h, CellTiter-Glo
T3 construct: P11274 (Breakpoint cluster region protein)
T3 sequence (P30530 536-807 limits assumed): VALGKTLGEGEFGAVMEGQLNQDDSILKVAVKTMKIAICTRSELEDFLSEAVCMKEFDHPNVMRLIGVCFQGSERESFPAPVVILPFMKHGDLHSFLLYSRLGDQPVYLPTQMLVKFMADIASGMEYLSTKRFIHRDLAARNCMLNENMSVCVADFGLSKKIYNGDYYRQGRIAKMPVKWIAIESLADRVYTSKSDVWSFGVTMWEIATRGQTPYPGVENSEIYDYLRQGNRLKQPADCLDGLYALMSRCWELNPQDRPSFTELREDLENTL
Experimental: Assay 5—Ba/F3 Cell Survival Assays.
The inhibitory potencies of compounds were assessed in a Ba/F3 cell survival assay, using the Ba/F3 Pro B-cell line, recombinantly expressing a BCR-human AXL kinase domain fusion protein (pACD320/AXL, Advanced Cellular Dynamics Inc), TEL-human MERTK fusion domain (pACD1000/MERTK, Advanced Cellular Dynamics Inc), TEL-human Tyro3 fusion domain (pACD1000/TYRO3, Advanced Cellular Dynamics Inc), or control TEL-none (ACD320, Advanced Cellular Dynamics Inc) BRC-none constructs (ACD1000, Advanced Cellular Dynamics Inc). 10 ng/mL recombinant murine IL3 (R&D, 403-ML-010) was included in the media when propagating negative control TEL-none or BCR-none lines only. […] The final assay DMSO concentration was 0.25%. Compound incubations were conducted for 48 h at 37° C./5% CO2, after which cell plate was equilibrated at room temperature for 20 minutes prior to assessing viability. 15 μl of Promega CellTiter-Glo reagent (G7572) was added to each well for 2 min on an orbital shaker to induce cell lysis.
The plate was then equilibrated for 5 min at room temperature and luminescence read on a BMG Pherastar FSX using the LUM plus optic module. […] Competition curves were then fit to a 4 parameter logistic equation including a variable slope factor to determine the IC50 (compound concentration causing a half-maximal inhibition of cell survival).

[4] = target: T4, human MERTK cytoplasmic domain (Homo sapiens, UniProt Q12866); assay: biochemical
T4 construct: human MERTK cytoplasmic domain (Carna Biosciences 08-108); purchased Carna Biosciences 08-108
T4 sequence (Q12866 527-999): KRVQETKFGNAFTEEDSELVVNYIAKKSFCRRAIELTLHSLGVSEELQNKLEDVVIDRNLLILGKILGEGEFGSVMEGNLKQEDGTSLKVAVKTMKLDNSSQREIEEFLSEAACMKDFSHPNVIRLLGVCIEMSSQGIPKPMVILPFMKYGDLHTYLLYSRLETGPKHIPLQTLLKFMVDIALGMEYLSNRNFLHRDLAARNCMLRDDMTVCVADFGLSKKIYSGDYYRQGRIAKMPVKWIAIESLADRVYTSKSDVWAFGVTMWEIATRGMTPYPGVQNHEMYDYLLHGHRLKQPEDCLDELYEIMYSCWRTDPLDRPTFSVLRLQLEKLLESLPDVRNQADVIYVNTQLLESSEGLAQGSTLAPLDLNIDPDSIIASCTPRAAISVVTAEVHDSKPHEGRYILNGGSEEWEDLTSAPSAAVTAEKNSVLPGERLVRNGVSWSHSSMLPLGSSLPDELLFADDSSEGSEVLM
Experimental: Assay 1a—MERTK HTRF KinEASE-TK Assay
The enzymatic reaction was carried out for 30 min at room temperature. 10 μL TK Antibody-Cryptate/Streptavidin-XL665 (Cisbio 610SAXLG) was then added for 60 min, including EDTA containing detection buffer (Cisbio 62SDBRDF) to stop the reaction.

[5] = target: T5, human AXL cytoplasmic domain (Homo sapiens, UniProt P30530); assay: Assay 1b AXL HTRF KinEASE-TK assay; type: biochemical
T5 construct: human AXL cytoplasmic domain (Thermo Fisher A31515); purchased Thermo Fisher A31515
T5 sequence (P30530 473-894 limits assumed): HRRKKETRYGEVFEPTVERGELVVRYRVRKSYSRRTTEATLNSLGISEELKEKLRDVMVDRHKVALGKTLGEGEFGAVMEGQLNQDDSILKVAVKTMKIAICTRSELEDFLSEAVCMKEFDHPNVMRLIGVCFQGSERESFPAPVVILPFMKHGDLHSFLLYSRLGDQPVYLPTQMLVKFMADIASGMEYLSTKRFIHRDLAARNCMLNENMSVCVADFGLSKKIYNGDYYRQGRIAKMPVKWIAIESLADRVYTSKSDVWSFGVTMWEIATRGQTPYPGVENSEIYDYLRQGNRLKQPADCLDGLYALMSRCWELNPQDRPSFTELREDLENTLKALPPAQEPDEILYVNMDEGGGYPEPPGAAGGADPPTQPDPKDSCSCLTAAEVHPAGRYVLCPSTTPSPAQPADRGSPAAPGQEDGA
How it was run: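 Recombinant cytoplasmic domain (5 nM) in kinase buffer with 5 mM MgCl2, 1 mM MnCl2, 1 mM DTT, 50 nM SEB plus test compounds; reaction 30 min at room temperature. EDTA-containing detection with TK antibody-cryptate/streptavidin-XL665 for 60 min; HTRF 665/620 ratio read. IC50 from 4-parameter logistic fit with variable slope.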

[6] = read-out: TEL-MERTK Ba/F3 IC50; cell survival, 48 h, CellTiter-Glo
[7] = cell survival, 48 h, CellTiter-Glo; read-out: TEL-MERTK Ba/F3 IC50
[8] = 30 uM ATP, read-out: Assay 1a Mer IC50 30 uM ATP

SMILES	IC50 [5]	IC50 [4, 8]	IC50 ([5]; # 1 μM ATP used in assay, read-out: Assay 1b Axl IC50)	IC50 [1]	IC50 [2, 6]	IC50 [3]	IC50 [4]	IC50 [2, 7]
CC(C)n1cc(C(=O)Nc2ccc(Oc3ccnc4cnc(N5CCN(C6COC6)CC5)cc34)cn2)c(=O)n(-c2ccc(F)cc2)c1=O [Example 20.1, 3-(4-fluorophenyl)-1-isopropyl-N-[5-[[6-[4-(oxetan-3-yl)piperazin-1-yl]-1,7-naphthyridin-4-yl]oxy]-2-pyridyl]-2,4-dioxo-pyrimidine-5-carboxamide]	5 nM			452 nM	27 nM	15 nM	5 nM	
CC(C)n1cc(C(=O)Nc2ccc(Oc3ccnc4cnc(N5CCN(C6COC6)CC5)cc34)cn2)c(=O)c(-c2ccc(F)cc2)c1 [Example 20.2, 5-(4-fluorophenyl)-1-isopropyl-N-[5-[[6-[4-(oxetan-3-yl)piperazin-1-yl]-1,7-naphthyridin-4-yl]oxy]-2-pyridyl]-4-oxo-pyridine-3-carboxamide]	7 nM	1 nM		220 nM		2 nM		5 nM
O=C(Nc1ccc(Oc2ccnc3cnc(C4CCNC4)cc23)cn1)c1cccn(-c2ccc(F)cc2)c1=O (stereo not drawn) [Example 21, 1-(4-fluorophenyl)-2-oxo-N-[5-[(6-pyrrolidin-3-yl-1,7-naphthyridin-4-yl)oxy]-2-pyridyl]pyridine-3-carboxamide]	247 nM	57 nM		2390 nM		203 nM		217 nM
CC(C)C(=O)N1CCC(c2cc3c(Oc4ccc(NC(=O)c5cccn(-c6ccc(F)cc6)c5=O)nc4)ccnc3cn2)CC1 [Example 22, 1-(4-fluorophenyl)-N-[5-[[6-[1-(2-methylpropanoyl)-4-piperidyl]-1,7-naphthyridin-4-yl]oxy]-2-pyridyl]-2-oxo-pyridine-3-carboxamide]	5 nM			> 2500 nM	10 nM	10 nM	1 nM	
CN1CCC(Oc2cc3c(Oc4ccc(NC(=O)c5cccn(-c6ccc(F)cc6)c5=O)nc4)ccnc3cn2)CC1 [Example 24, 1-(4-fluorophenyl)-N-[5-[[6-[(1-methyl-4-piperidyl)oxy]-1,7-naphthyridin-4-yl]oxy]-2-pyridyl]-2-oxo-pyridine-3-carboxamide]	21 nM			37 nM	6 nM	6 nM	6 nM	
Cc1cc(NC(=O)c2cccn(-c3ccc(F)cc3)c2=O)ncc1Oc1ccnc2cnc(C(=O)NC3CCN(C)CC3)cc12 [Example 25, 4-[[6-[[1-(4-fluorophenyl)-2-oxo-pyridine-3-carbonyl]amino]-4-methyl-3-pyridyl]oxy]-N-(1-methyl-4-piperidyl)-1,7-naphthyridine-6-carboxamide]	76 nM	29 nM		91 nM		27 nM		54 nM
Cc1nc(NC(=O)c2cccn(-c3ccc(F)cc3)c2=O)ccc1Oc1ccnc2cnc(C(=O)NC3CCN(C)CC3)cc12 [Example 26, 4-[[6-[[1-(4-fluorophenyl)-2-oxo-pyridine-3-carbonyl]amino]-2-methyl-3-pyridyl]oxy]-N-(1-methyl-4-piperidyl)-1,7-naphthyridine-6-carboxamide]	360 nM	19 nM		1420 nM		83 nM		55 nM
Cc1cc(NC(=O)c2cccn(-c3ccccc3)c2=O)ccc1Oc1ccnc2cnc(C(=O)NC3CCN(C)CC3)cc12 [Example 34, 4-[2-Methyl-4-[(2-oxo-1-phenyl-pyridine-3-carbonyl)amino]phenoxy]-N-(1-methyl-4-piperidyl)-1,7-naphthyridine-6-carboxamide]	296 nM	43 nM		128 nM		73 nM		144 nM

Second part, led by results:

IC50 [5]	IC50 [4, 8]	IC50 ([5]; # 1 μM ATP used in assay, read-out: Assay 1b Axl IC50)	SMILES	IC50 [1]	IC50 [2, 6]	IC50 [3]	IC50 [4]	IC50 [2, 7]
46 nM	9 nM		O=C(Nc1ccc(Oc2ccnc3cnc(C4CCNCC4)cc23)cn1)c1cccn(-c2ccc(F)cc2)c1=O [Example 21.1, 1-(4-fluorophenyl)-2-oxo-N-[5-[[6-(4-piperidyl)-1,7-naphthyridin-4-yl]oxy]-2-pyridyl]pyridine-3-carboxamide]	861 nM		46 nM		35 nM
3 nM	11 nM		CC(C)n1cc(C(=O)Nc2ccc(Oc3ccnc4cnc(C(=O)NC5CCN(C(=O)OC(C)(C)C)CC5)cc34)cn2)c(=O)n(-c2ccc(F)cc2)c1=O [Example 27.1, tert-butyl 4-[[4-[[6-[[3-(4-fluorophenyl)-1-isopropyl-2,4-dioxo-pyrimidine-5-carbonyl]amino]-3-pyridyl]oxy]-1,7-naphthyridine-6-carbonyl]amino]piperidine-1-carboxylate]	881 nM		15 nM		67 nM
	17 nM	4 nM	CC(C)n1cc(C(=O)Nc2ccc(Oc3ccnc4cnc(C(=O)NC5CC6CCC(C5)N6C)cc34)cn2)c(=O)n(-c2ccc(F)cc2)c1=O (stereo not drawn) [Example 27.2, 4-[[6-[[3-(4-fluorophenyl)-1-isopropyl-2,4-dioxo-pyrimidine-5-carbonyl]amino]-3-pyridyl]oxy]-N-(8-methyl-8-azabicyclo[3.2.1]octan-3-yl)-1,7-naphthyridine-6-carboxamide]	376 nM		13 nM		49 nM
6 nM	31 nM		CC(C)n1cc(C(=O)Nc2ccc(Oc3ccnc4cnc(C(=O)NCCN(C)C)cc34)cn2)c(=O)n(-c2ccc(F)cc2)c1=O [Example 27.3, N-[2-(dimethylamino)ethyl]-4-[[6-[[3-(4-fluorophenyl)-1-isopropyl-2,4-dioxo-pyrimidine-5-carbonyl]amino]-3-pyridyl]oxy]-1,7-naphthyridine-6-carboxamide]	631 nM		21 nM		44 nM
